Where no end group is shown, it is not given here.
What was measured:
[1] = tested on: S. aureus USA300 internalization by HaCaT cells; experiment: S. aureus USA300 invasion (internalization) into HaCaT keratinocytes; type: cell-based, human; settings: for relative invasion (intracellular USA300 count) in HaCaT at 20 µM: peptide 20 µM; for relative invasion (intracellular USA300 count) in HaCaT at 50 µM: peptide 50 µM; for decrease in uptake/invasion of S. aureus USA300 by HaCaT cells compared to untreated control: preincubation with L15 20 µM, L13 30 µM, geldanamycin 5 µM or α-Hsp90α antibody, MOI 30; for concentration from which a significant reduction of intracellular USA300 was observed: tested 0 to 50 µM in HaCaT
Experimental: The invasion protocol was adapted from our previous papers (Nguyen et al. [2015], Tribelli et al. [2020]). About 5 × 10^5 Keratinocytes were seeded in a 24 well plate (Greiner, Frickenhausen, Germany) to attain a monolayer of ∼10^6 cells/well. Staphylococcusaureus was grown overnight at 37°C, centrifuged and suspended in invasion medium (DMEM with 10% FBS for HaCaT and K-SFM for NTERT-1 cells). The adherent keratinocytes were […], or 5 µM geldanamycin (Sigma-Aldrich, Germany) or monoclonal antibodies specific against Hsp90α (α‐Hsp90α, Abcam) for 1 h. After 1 h, 100 µl of bacterial suspension was added to each well to attain a MOI (multiplicity of infection) of 30 and incubated with cells for 1.5 h. Subsequently, the extracellular bacteria were killed with treatment of 2.5 μg/ml lysostaphin (Sigma-Aldrich, Germany) for 1.5 h. The cells were then washed, lysed, mechanically detached by scraping, diluted, and enumerated on TSA (Tryptic Soy Agar) plates to quantify the intracellular bacteria.

[2] = tested on: F-actin levels in HaCaT cells; experiment: F-actin measurement (ActinGreen 488 fluorescence) in HaCaT cells; type: cell-based, human; settings: 35 µg/ml peptide (L15 20 µM, L13 30 µM), geldanamycin 5 µM; 1.5 h; ActinGreen 488 fluorescence relative to control
Experimental: (§1) About 5 × 10^4 cells were seeded in black flat bottom 96 well cell culture microplate (Greiner, Germany) and incubated overnight. The cells were then incubated with peptides or geldanamycin for 1.5 h. After incubation, the cells were washed, permeabilised with 0.1% (v/v) Triton X-100 and stained with ActinGreen™ 488 ReadyProbes® (Thermo Fischer, Germany) for 30 min. After the staining, the cells were washed and measure for its fluorescence at Excitation/Emission: 495/518 nm (Luqman et al. [2020]).

[3] = tested on: F-actin levels in N/TERT-1 cells; experiment: F-actin measurement (ActinGreen 488 fluorescence) in N/TERT-1 cells; type: cell-based, human; settings: L15 20 µM, L13 30 µM, geldanamycin 5 µM; 1.5 h; relative to control
Experimental: as §1

Lpl1 = target: T1, Lpl1 (Staphylococcus aureus, UniProt Q2FJK4); experiment: Dot blot / immunoblot interaction with Lpl1-his; type: binding; settings: 2 µg blotted, anti-6X His immunodetection
T1 construct: made in house
T1 sequence (Q2FJK4 23-257): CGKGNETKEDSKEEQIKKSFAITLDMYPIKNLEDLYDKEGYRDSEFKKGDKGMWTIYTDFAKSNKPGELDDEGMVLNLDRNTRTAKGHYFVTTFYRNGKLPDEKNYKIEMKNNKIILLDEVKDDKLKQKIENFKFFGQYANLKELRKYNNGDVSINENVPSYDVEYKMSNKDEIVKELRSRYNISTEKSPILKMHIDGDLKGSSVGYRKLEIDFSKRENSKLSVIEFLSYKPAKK
Experimental: Two µg of each peptide was blotted (dot blot) directly on PDV nitrocellulose membrane and blocked with ROTI®Block (Carl Roth, Germany). After washing, the membrane was then incubated with 20 μg of recombinant Hsp90α (Abcam)/Lpl1-his protein at 4°C overnight. In case of interaction studies with Hsp90α, α-Hsp90α (produced in mouse, Abcam) was used as the primary antibody and for interaction studies with Lpl1-his, Anti-6X His tag antibody (also produced in mouse, Sigma-Aldrich, Germany) was used. Alkaline phosphatase conjugated goat-α-mouse IgG (Sigma-Aldrich, Germany) served as the secondary antibody. Detection was done using BCIP®/NBT solution (Sigma, Germany). Lpl1-his was isolated and purified as described in our previous paper (Tribelli et al. [2020]).

HaCaT cells = experiment: MTT cytotoxicity in HaCaT cells; type: cell-based, human; settings: for toxicity to HaCaT cells at tested concentration and exposure time: concentrations used in invasion studies (Fig. S1)
Experimental: MTT (3-(4,5-dimethylthiazol-2-yl)-2,5-diphenyl tetrazolium bromide) assay was employed to analyze the cytotoxicity of peptides and geldanamycin to the cells. 5 × 10^5 cells were seeded in a 96 flat bottom well plate and incubated for 2.5 or 24 h at 37°C with 5% CO2. The cells were then treated with increasing concentration (0 to 200 µM) of peptides or geldanamycin for 24 h. After the incubation, 10 μl of the MTT labelling reagent is added to each well to attain a final concentration 0.5 mg/ml, followed by 4 h incubation. Metabolically active cells convert the yellow tetrazolium salt to purple formazan crystals, which were solubilized using the solubilization solution (DMSO) and measured for absorbance at λmax/λref–570/690 nm (Saising et al. [2018]).

S. aureus USA300 = experiment: Galleria mellonella larvae infection model, S. aureus USA300; type: in vivo
Experimental: Galleria mellonella larvae, purchased from Feeders & more GmbH, Germany, were sorted based on weight and used within one week. Ten larvae per group with weight average of 500 mg/larvae were injected with bacteria and/or peptides on its last proleg using a BD insulin syringe. The dosage used for the experiment were 60 mg/kg for peptides, 5 mg/kg of geldanamycin and 20 mg/kg for vancomycin. Each larva was injected with 10 µl of L15 (last left proleg) 1 h before administration of 10^6 cfu S. aureus (last right proleg). The larvae were maintained at 37°C and observed for mortality every day over the course of 5 days.

[4] = tested on: total ATPase activity in HaCaT cells; experiment: Total ATPase activity in HaCaT cells; type: cell-based, human; settings: Fig. S4
Solubility in PBS = type: physicochemical; settings: qualitative statement
[5] = tested on: S. aureus USA300 invasion into N/TERT-1 cells; experiment: S. aureus USA300 invasion into N/TERT-1 keratinocytes; type: cell-based, human; settings: pretreatment with L15 20 µM, L13 30 µM, geldanamycin 5 µM or α-Hsp90α antibody
Experimental: The invasion protocol was adapted from our previous papers (Nguyen et al. [2015], Tribelli et al. [2020]). About 5 × 10^5 Keratinocytes were seeded in a 24 well plate (Greiner, Frickenhausen, Germany) to attain a monolayer of ∼10^6 cells/well. Staphylococcusaureus was grown overnight at 37°C, centrifuged and suspended in invasion medium (DMEM with 10% FBS for HaCaT and K-SFM for NTERT-1 cells). The adherent keratinocytes were washed with PBS and supplemented with invasion medium followed by treatment with 20 µM of L15, 30 µM of L13, or 5 µM geldanamycin (Sigma-Aldrich, Germany) or monoclonal antibodies specific against Hsp90α (α‐Hsp90α, Abcam) for 1 h. After 1 h, 100 µl of bacterial suspension was added to each well to attain a MOI (multiplicity of infection) of 30 and incubated with cells for 1.5 h. Subsequently, the extracellular bacteria were killed with treatment of 2.5 μg/ml lysostaphin (Sigma-Aldrich, Germany) for 1.5 h. The cells were then washed, lysed, mechanically detached by scraping, diluted, and enumerated on TSA (Tryptic Soy Agar) plates to quantify the intracellular bacteria.

| Sequence | relative invasion (intracellular USA300 count) in HaCaT at 20 µM ([1]; untreated control 1.0 ± 0.0) | relative invasion (intracellular USA300 count) in HaCaT at 40 µM ([1]; peptide 40 µM, untreated control 1.0 ± 0.0) | relative invasion (intracellular USA300 count) in HaCaT at 50 µM ([1]; untreated control 1.0 ± 0.0) | decrease in uptake/invasion of S. aureus USA300 by HaCaT cells compared to untreated control [1] | concentration from which a significant reduction of intracellular USA300 was observed [1] | Relative F-actin level in HaCaT [2] | relative F-actin content in N/TERT-1 cells [3] | direct interaction with Lpl1 (Lpl1) | percentage of viable cells, HaCaT, 1 µM (HaCaT cells; MTT, 24 h, 1 µM) | percentage of viable cells, HaCaT, 200 µM (HaCaT cells; MTT, 24 h, 200 µM) | toxicity to HaCaT cells at tested concentration and exposure time (HaCaT cells) | larvae surviving on day 5, S. aureus USA300 (S. aureus USA300; peptides 60 mg/kg injected 1 h before 10^6 cfu, 37°C, 10 larvae per group, three biological replicates) | effect on total ATPase activity in HaCaT cells [4] | solubility in PBS (Solubility in PBS) | invasion of S. aureus USA300 into N/TERT-1 cells [5] | reduction of lethality of S. aureus in the insect model (S. aureus USA300; G. mellonella model) |
| --- | --- | --- | --- | --- | --- | --- | --- | --- | --- | --- | --- | --- | --- | --- | --- | --- |
| GHYFVTTFY [L13] | 0.67 ± 0.05 | 0.41 ± 0.03 | 0.73 ± 0.18 | 50–60% | ≥ 20 µM | 0.87 ± 0.03 | 0.81 ± 0.03 | interact directly | 103.05 ± 10.06% | 83.79 ± 11.13% | neither inhibit the viability of host cells | 23% | could not detect any significant inhibition | poor solubility in PBS | inhibits the invasion |  |
| TAKGHYFVTTFYRNG [L15] | 0.33 ± 0.24 |  | 0.40 ± 0.05 | 50–60% | ≥ 20 µM | 0.83 ± 0.04 | 0.9 ± 0.02 | interact directly |  |  | neither inhibit the viability of host cells |  | could not detect any significant inhibition | better soluble | inhibits the invasion | about 30% |
